Test results from ChEMBL document CHEMBL1201862, “PubChem BioAssay data set” (2004).
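Cells were grown in 96-well plates and exposed to each compound for 48 hours at five concentrations; endpoints were interpolated linearly between bracketing concentrations, or set to the highest concentration if not reached. GI50: concentration for 50% inhibition of growth.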 The source made the active and inactive calls. Rule as the data show it: active = GI50 up to about 1.1 µM and inactive = higher.

Columns and labels:
Experiment in all cases: inhibition of tumour cell growth, NCI panel, 48 h
EKVX = tested on: EKVX
DU-145 = tested on: DU-145
HT-29 = tested on: HT-29
HCT-15 = tested on: HCT-15
A498 = tested on: A498
SK-MEL-2 = tested on: SK-MEL-2
SF-268 = tested on: SF-268
MDA-N = tested on: MDA-N
KM12 = tested on: KM12
U-251 = tested on: U-251
SK-MEL-5 = tested on: SK-MEL-5
NCI-H460 = tested on: NCI-H460
CCRF-CEM = tested on: CCRF-CEM
SK-MEL-28 = tested on: SK-MEL-28
SF-539 = tested on: SF-539
BT-549 = tested on: BT-549
COLO 205 = tested on: COLO 205
MDA-MB-231 = tested on: MDA-MB-231
SNB-75 = tested on: SNB-75

Compound | GI50 (EKVX) | GI50 (DU-145) | GI50 (HT-29) | GI50 (HCT-15) | GI50 (A498) | GI50 (SK-MEL-2) | GI50 (SF-268) | GI50 (MDA-N) | GI50 (KM12) | GI50 (U-251) | GI50 (SK-MEL-5) | GI50 (NCI-H460) | GI50 (CCRF-CEM) | GI50 (SK-MEL-28) | GI50 (SF-539) | GI50 (BT-549) | GI50 (COLO 205) | GI50 (MDA-MB-231) | GI50 (SNB-75)
CCOC(=O)C1(C(=O)OCC)C[C@H]2CON=C2[C@@H]1c1ccc(C(F)(F)F)cc1 | 29.5 µM (inactive) | > 100 µM (inactive) | 32 µM (inactive) | 38.6 µM | 53.1 µM (inactive) | 62.2 µM (inactive) | > 100 µM (inactive) | 45.7 µM (inactive) | 82.6 µM (inactive) | 64.7 µM (inactive) | 30.6 µM (inactive) | 42.9 µM (inactive) | 7.96 µM (inactive) | > 100 µM (inactive) | > 100 µM (inactive) | 44.7 µM (inactive) | 26.2 µM (inactive) | > 100 µM (inactive) | 62.5 µM (inactive)
COc1cc(/N=N/c2cccc(S(N)(=O)=O)c2)c2ccccc2c1N | 13.8 µM (inactive) | 1.9 µM (inactive) | 15.2 µM (inactive) | 18.2 µM | 19.7 µM (inactive) | 2.26 µM (inactive) | 15 µM (inactive) | 2.41 µM (inactive) | 12.9 µM (inactive) | 7.48 µM (inactive) | 1.8 µM (inactive) | 9.98 µM (inactive) | 8.17 µM (inactive) | 7.11 µM (inactive) | 3.05 µM (inactive) | 7.33 µM (inactive) | 13 µM (inactive) | 10.5 µM (inactive) | 1.98 µM (inactive)
O=C1c2c(O)cccc2C(C2OC(CO)C(O)C(O)C2O)c2cc(CO)cc(O)c21 (stereo not drawn) | > 100 µM (inactive) | > 100 µM (inactive) | > 100 µM (inactive) | > 100 µM | > 100 µM (inactive) | > 100 µM (inactive) | > 100 µM (inactive) | > 100 µM (inactive) | > 100 µM (inactive) | > 100 µM (inactive) | > 100 µM (inactive) | > 100 µM (inactive) | > 100 µM (inactive) | > 100 µM (inactive) | > 100 µM (inactive) | > 100 µM (inactive) | > 100 µM (inactive) | > 100 µM (inactive) | > 100 µM (inactive)
C=C1C(=O)O[C@H]2C[C@@H]1[C@@H](O)[C@H](O)[C@@H](C)CCCC(C)=CCC[C@@]2(C)O | 54 µM (inactive) | 42.7 µM (inactive) |  | 22.9 µM | 51.2 µM (inactive) | 21.6 µM (inactive) | 22.6 µM (inactive) | 9.86 µM (inactive) | 30.9 µM (inactive) | 24.7 µM (inactive) | 14.3 µM (inactive) | 23 µM (inactive) | > 100 µM (inactive) | 25.6 µM (inactive) | 15.2 µM (inactive) | 10 µM (inactive) | 7.03 µM (inactive) | 28 µM (inactive) | 45.5 µM (inactive)
COc1cc(S(=O)(=O)Nc2ccc(-c3csc(/N=C\c4ccccc4O)n3)cc2)ccc1Cl | 29.8 µM (inactive) | 45.9 µM (inactive) | > 100 µM (inactive) | 51.4 µM | > 100 µM (inactive) | 29.2 µM (inactive) | 42 µM (inactive) | 33.9 µM (inactive) | 38.1 µM (inactive) |  | 70.5 µM (inactive) |  | 22.3 µM (inactive) | 39.3 µM (inactive) | 55.7 µM (inactive) | 43.7 µM (inactive) | 41.2 µM (inactive) | 53.6 µM (inactive) | 55.2 µM (inactive)
O=C(O)CCC(N/N=N/c1ccc(-c2nc3ccccc3[nH]2)cc1)C(=O)O (stereo not drawn) | > 100 µM (inactive) | > 100 µM (inactive) | 58.1 µM (inactive) | 34 µM | > 100 µM (inactive) | 56.6 µM (inactive) |  | 56 µM (inactive) | 37.4 µM (inactive) | 43.7 µM (inactive) | 66.5 µM (inactive) | 31.8 µM (inactive) | 15 µM (inactive) | > 100 µM (inactive) | > 100 µM (inactive) | 23.9 µM (inactive) | > 100 µM (inactive) | > 100 µM (inactive) | 59.2 µM (inactive)
COc1cc2oc(=O)ccc2cc1CC=C(C)C [SUBEROSIN] | 5.81 µM (inactive) | 36.8 µM (inactive) | 22.6 µM (inactive) |  | 27.2 µM (inactive) | 45.3 µM (inactive) | 47.8 µM (inactive) | 52.5 µM (inactive) | 36.9 µM (inactive) | 43.3 µM (inactive) | 37.3 µM (inactive) | 50.8 µM (inactive) | 44 µM (inactive) | 76.4 µM (inactive) | 37.7 µM (inactive) | 24.4 µM (inactive) | 43.4 µM (inactive) | 50.2 µM (inactive) | 41.1 µM (inactive)
CCCCN(CCCC)C(=C(C(Cl)=C(Cl)Cl)[N+](=O)[O-])N(CCCC)CCCC | 67.5 µM (inactive) | > 100 µM (inactive) |  | 98.6 µM | > 100 µM (inactive) | 80.2 µM (inactive) | > 100 µM (inactive) | > 100 µM (inactive) | 72.1 µM (inactive) | 45.9 µM (inactive) | > 100 µM (inactive) | 89.5 µM (inactive) |  | > 100 µM (inactive) | > 100 µM (inactive) | > 100 µM (inactive) | > 100 µM (inactive) | 65.2 µM (inactive) | > 100 µM (inactive)
C/C=C\C(CC(=O)O)CC(=O)NCCC1CN(S(=O)(=O)C(F)(F)F)c2ccccc21 (stereo not drawn) | > 100 µM (inactive) | > 100 µM (inactive) | > 100 µM (inactive) | > 100 µM | > 100 µM (inactive) | > 100 µM (inactive) | > 100 µM (inactive) | > 100 µM (inactive) | > 100 µM (inactive) | > 100 µM (inactive) | > 100 µM (inactive) | > 100 µM (inactive) | > 100 µM (inactive) | > 100 µM (inactive) |  | > 100 µM (inactive) | > 100 µM (inactive) | > 100 µM (inactive) | > 100 µM (inactive)
COC(=O)[C@]12CSC[C@H]1C[C@H](c1ccc(N(C)C)cc1)N2 | > 73.3 µM (inactive) | > 100 µM (inactive) |  | > 100 µM | > 28.1 µM (inactive) | > 100 µM (inactive) | > 100 µM (inactive) | > 62.2 µM (inactive) | > 100 µM (inactive) | > 100 µM (inactive) | > 100 µM (inactive) | > 100 µM (inactive) |  | > 100 µM (inactive) | > 100 µM (inactive) | > 100 µM (inactive) | > 100 µM (inactive) | > 100 µM (inactive) | > 100 µM (inactive)
O=C(O)C(Cc1c[nH]c2ccccc12)N1C(=O)c2ccccc2C1=O (stereo not drawn) | > 100 µM (inactive) | > 100 µM (inactive) | > 100 µM (inactive) | > 100 µM | > 100 µM (inactive) | > 100 µM (inactive) | > 100 µM (inactive) | > 100 µM (inactive) | > 100 µM (inactive) | > 100 µM (inactive) | > 100 µM (inactive) | > 100 µM (inactive) |  | > 100 µM (inactive) | > 100 µM (inactive) | > 100 µM (inactive) | > 100 µM (inactive) | > 100 µM (inactive) | > 100 µM (inactive)
